{"source": "patent US20080103198A1", "about": "“METHODS FOR TREATMENT OF COCHLEAR AND VESTIBULAR DISORDERS” (priority 2006, published 2008)", "key": {"[1]": {"tested_on": "Li-Pilo SE", "test": "Lithium-pilocarpine model (Example 2): mortality and latency to SRS", "type": "in vivo, rat", "design": "degree of mortality: concentration or dose not given beside the values", "protocol": "The model induced in rats by pilocarpine associated with lithium (Li-Pilo) reproduces most of the clinical and neurophysiological features of human temporal lobe epilepsy (See, Turski et al., 1989; Synapse 3:154-171; Cavalheiro, 1995, Ital J Neurol Sci 16:33-37). In adult rats, the systemic administration of pilocarpine leads to SE that may last for up to 24 h. The lethality rate reaches 30-50% during the first days. In the surviving animals, neuronal damage predominates within the hippocampal formation, the piriform and entorhinal cortices, thalamus, amygdaloid complex, neocortex and substantia nigra.\nIn the present study, we tested the effects of different doses of various doses of test compound, i.e. 30, 60, 90 and 120 mg/kg (referred to herein as RWJ30, RWJ60, RWJ90 and RWJ120) using the same design as in the previous study. The treatment was started one hour after the onset of status epilepticus (SE) and the animals were treated with a second injection of the same dose of the drug. This early treatment of SE was followed by a 6 day test compound treatment. This report concerns the effects of the four different doses of test compound on neuronal damage in hippocampus and parahippocampal cortices. The study on the latency to the onset of epilepsy is still incomplete but we will show the data we have got at present which have been performed on a limited group of animals. The latency to spontaneous epileptic seizures was correlated on the same rats to the number of neurons remaining in the areas involved in the circuit of seizures.\nAdult male Sprague-Dawley rats provided by Janvier Breeding Center (Le Genest-St-Isle, France) were housed under controlled, uncrowded standard conditions at 20-22° C. (light/dark cycle, 7.00 a.m.-7.00 p.m. lights on), with food and water available ad libitum. All animal experimentation was performed in accordance with the rules of the European Communities Council Directive of Nov. 24, 1986 (86/609/EEC), and the French Department of Agriculture (License No 67-97).\nAll rats received lithium chloride (3 meq/kg, i.p., Sigma, St Louis, Mo., U.S.A.) and about 20 h later, all animals received also methylscopolamine bromide (1 mg/kg, s.c., Sigma) that was administered to limit the peripheral effects of the convulsant. SE was induced by injecting pilocarpine hydrochloride (25 mg/kg, s.c., Sigma) 30 min after methylscopolamine. The effects of increasing doses of test compound (RWJ) were studied in 5 groups of rats. The animals received either 2.5 mg/kg diazepam, i.m., (DZP), or 30, 60, 90 or 120 mg/kg of test compound (RWJ30, RWJ60, RWJ90, RWJ120), i.p., at 1 h after the onset of SE. The control group received vehicle instead of pilocarpine and test compound. The rats surviving SE were then injected about 10 h after the first test compound injection with a second i.p. injection of 1.25 mg/kg DZP for the DZP group or of the same dose of test compound as in the morning and were maintained under a twice daily test compound treatment for 6 additional days (s.c.) while DZP rats received a vehicle injection. The effects of the four doses of test compound on the latency to occurrence of spontaneous recurrent seizures (SRS) were investigated by daily video recording of the animals for 10 h per day."}, "[2]": {"tested_on": "Li-Pilo SE", "test": "Lithium-pilocarpine model (Example 2): quantification of cell densities", "type": "in vivo, rat", "protocol": "Quantification of cell densities was performed at two times after SE: a first group was studied 14 days after SE and was composed by 7 DZP, 8 RWJ30, 11 RWJ60, 10 RWJ90, 8 RWJ120 and 8 control rats not subjected to SE. A second group used for the study of the latency to SRS was sacrificed either 8 weeks after the first SRS or at 5 months when no SRS could be seen in that delay and was composed by 7 DZP, 2 RWJ30, 3 RWJ60, 3 RWJ90, 4 RWJ120 rats. Animals were deeply anesthetized with 1.8 g/kg pentobarbital (Dolethal®, Vétoquinol, Lure, France). Brains were then removed and frozen. Serial 20 μm slices were cut in a cryostat, air-dried during several days before thionine staining. Quantification of cell densities was performed with a 10×10 boxes 1 cm^2 microscopic grid on coronal sections according to the stereotaxic coordinates of the rat brain atlas (Paxinos and Watson, 1986, The Rat Brain in Stereotaxic coordinates, 2nd ed. Academic Press, San Diego). The grid of counting was placed on a well-defined area of the cerebral structure of interest and counting was carried out with a microscopic enlargement of 200- or 400-fold defined for each single cerebral structure. Cell counts were performed twice on each side of three adjacent sections for each region by a single observer unaware of the animal's treatment. The number of cells obtained in the 12 counted fields in each cerebral structure was averaged. This procedure was used to minimize the potential errors that could result from double counting leading to overestimation of cell numbers. […] Counts involved only neurons with cell bodies larger than 10 μm. Cells with small cell bodies were considered as glial cells and were not counted.\nFor neuronal damage, statistical analysis between groups was performed by means of a one-way analysis of variance followed by a post-hoc Scheffe's test using the Statview software."}, "[3]": {"settings": "14 days after SE, DZP 2.5 mg/kg i.m., mean ± S.E.M."}, "[4]": {"settings": "DZP vs control rats, 14 days after SE"}}, "data": [{"smiles": "CN1C(=O)CN=C(c2ccccc2)c2cc(Cl)ccc21", "note": "[DZP, diazepam, reference compound]", "values": [{"measurement": "latency to spontaneous seizures (mean)", "setting": "[1]; DZP group, 7 rats", "value": "18 ± 8", "unit": "days"}, {"measurement": "mortality over the first 48 h after SE", "setting": "[1]; early cell counting group, DZP 2.5 mg/kg i.m.", "value": 47, "unit": "%"}, {"measurement": "degree of mortality", "setting": "[1]; latency to SRS / late cell counting group, DZP", "value": 30, "unit": "%"}, {"measurement": "number of neuronal cell bodies, Dorsal entorhinal, layer II", "setting": "[2]; [3]", "value": "23.5 ± 0.7"}, {"measurement": "number of neuronal cell bodies, Dorsal entorhinal, layer III", "setting": "[2]; [3]", "value": "22.3 ± 0.5"}, {"measurement": "number of neuronal cell bodies, Piriform, layer II, dorsal", "setting": "[2]; [3]", "value": "12.6 ± 4.2"}, {"measurement": "number of neuronal cell bodies, Piriform, layer II, ventral", "setting": "[2]; [3]", "value": "3.6 ± 0.7"}, {"measurement": "number of neuronal cell bodies, Piriform, layer III", "setting": "[2]; [3]", "value": "1.2 ± 1.2"}, {"measurement": "number of neuronal cell bodies, Ventral entorhinal, layer II", "setting": "[2]; [3]", "value": "21.7 ± 1.3"}, {"measurement": "number of neuronal cell bodies, Ventral entorhinal, layers III-IV", "setting": "[2]; [3]", "value": "7.7 ± 2.3"}, {"measurement": "number of neuronal cell bodies, hippocampus CA1 area", "setting": "[2]; [3]", "value": "10.9 ± 1.9"}, {"measurement": "number of neuronal cell bodies, hippocampus CA3 area", "setting": "[2]; [3]", "value": "31.3 ± 2.9"}, {"measurement": "number of neuronal cell bodies, hippocampus Hilus", "setting": "[2]; [3]", "value": "33.5 ± 3.0"}, {"measurement": "damage, entorhinal cortex dorsal layers II and III/IV and ventral layer II", "setting": "[2]; DZP group", "value": "18-24%"}, {"measurement": "cell loss, CA1 pyramidal cell layer", "setting": "[2]; [4]", "value": 85, "unit": "%"}, {"measurement": "cell loss, CA3", "setting": "[2]; [4]", "value": 40, "unit": "%"}, {"measurement": "cell loss, hilus of dentate gyrus", "setting": "[2]; [4]", "value": 66, "unit": "%"}, {"measurement": "cell loss, piriform cortex dorsal layer II", "setting": "[2]; [4]", "value": 66, "unit": "%"}, {"measurement": "cell loss, piriform cortex layer III", "setting": "[2]; [4]", "value": 94, "unit": "%"}, {"measurement": "cell loss, piriform cortex ventral layer II", "setting": "[2]; [4]", "value": 89, "unit": "%"}, {"measurement": "damage, dorsal entorhinal cortex layer II", "setting": "[2]; [4]", "value": 18, "unit": "%"}, {"measurement": "damage, dorsal entorhinal cortex layers III-IV", "setting": "[2]; [4]", "value": 24, "unit": "%"}, {"measurement": "damage, ventral entorhinal cortex layer II", "setting": "[2]; [4]", "value": 22, "unit": "%"}, {"measurement": "damage, ventral entorhinal cortex layers III/IV", "setting": "[2]; [4]", "value": 74, "unit": "%"}]}]}
